Test results published in a melting point compilation (Tetko et al.; mined from patent text by program, amines drawn as free bases though some values may be those of a salt).

`CC(=O)NCCc1ccc(CN2CCN(c3ccc(F)cc3)CC2)cc1` gave a melting point of 121 to 123 °C. Molecule `CCC(O)(c1ccc(OCCN(C)C)cc1)c1cccc(C(F)(F)F)c1` (stereo unspecified) has a melting point of 69 to 70 °C. For `CCCNc1ncnc2c1ncn2Cc1c(F)cccc1Cl`, the melting point was 166 to 167 °C. `NC(=NCC(F)(F)F)Nc1ccnc(CCCCNC(=S)NCC(F)(F)F)n1` gave a melting point of 142 to 145 °C. With `CC1=NOC(c2c(S(C)(=O)=O)ccc(C(=O)O)c2Cl)C1` (stereo unspecified) the melting point was 175 °C. Work on `CCOC(=O)c1c(S(N)(=O)=O)nc2sccn12` yielded a melting point of 164 to 166 °C. Molecule `COc1cc2c(cc1C#N)C1(CO2)C(=O)N(Cc2ccccn2)c2ccccc21` (stereo unspecified) has a melting point of 187 to 189 °C. In the case of `CNS(=O)(=O)c1cccc(S(N)(=O)=O)c1`, the melting point is reported as 125 to 128 °C. With `CC(C)(C)[Si](C)(C)Oc1ccc(-c2ccccc2C=C2SC(=O)NC2=O)cc1C12CC3CC(CC(C3)C1)C2` the melting point was 277 to 278 °C. Work on `CC(=O)c1ccc2c(c1)ncn2-c1cccc(-c2cnc(N)nc2)c1` yielded a melting point of 275 to 278 °C. For `O=CNCC1CCCc2cc(NS(=O)(=O)c3cccc(F)c3)ccc21` (stereo unspecified), the melting point was 143 to 144 °C. Work on `CCCCCCCCCCCCC(O)CN(CCC#N)CCCCCCCCCCCCN(CCC#N)CC(O)CCCCCCCCCCCC` (stereo unspecified) yielded a melting point of 37 to 38 °C. `O=C(N[C@@H](CSc1ccccc1[N+](=O)[O-])C(=O)O)OCc1ccccc1` showed a melting point of 84 to 88 °C. Work on `CCOC(=O)CCCCCSc1nnc(S)s1` yielded a melting point of 79 to 80 °C. Work on `COc1ccc(C(C)(c2ccc(OC)cc2)c2ccc(OC)cc2)cc1` yielded a melting point of 160 °C. `CCOc1nsc(S(C)(=O)=O)c1Cl` showed a melting point of 85 to 87 °C. `O=C1CC(CSc2nc3ccccc3s2)C(=O)O1` (stereo unspecified) gave a melting point of 87 to 88 °C. In the case of `Cc1cn(-c2ccc3nnc4c(C)nc(CC(C)C)n4c3c2)c(CC(C)C)n1`, the melting point is reported as 134 to 136 °C. For `CN(C)CCC(=O)Nc1ccc2[nH]c3ccc(NC(=O)CCN(C)C)cc3c(=O)c2c1`, the melting point was > 320 °C. Work on `CCOCc1nc2c(N)nc3cc(S(C)(=O)=O)ccc3c2n1CCCOC` yielded a melting point of 166 to 168 °C. `O=C(Nc1ccc([N+](=O)[O-])c(C(F)(F)F)c1)c1ccccc1SSc1ccccc1C(=O)Nc1ccc([N+](=O)[O-])c(C(F)(F)F)c1` showed a melting point of 167 to 169 °C. With `CS(=O)(=O)NCCCCCC1CCSS1` (stereo unspecified) the melting point was 43 to 46 °C. For `CCOC(=O)c1csc(-c2ccc([N+](=O)[O-])cc2)n1`, the melting point was 156 to 158 °C. Work on `O=C1NC(c2ccc(Cl)cc2)Nc2ccccc21` (stereo unspecified) yielded a melting point of 190 °C. With `CC(CS(=O)(=O)c1ccccc1)C1CCC2C3CC=C4CC(O)CC(O)C4(C)C3CCC12C` (stereo unspecified) the melting point was 214 °C. With `C[C@H](NC(=O)c1c[nH]c2ncc(-c3cn(-c4cccc(Cl)c4)cn3)nc12)C(C)(C)C` the melting point was 337 to 339 °C. In the case of `Cc1cc2c(c(C3=NNC(=O)CC3)c1)OCC(=O)N2`, the melting point is reported as 266 to 270 °C. For `Cc1cc(C)cc(-c2nnc(C#N)o2)c1`, the melting point was 127 °C. In the case of `Nc1n[nH]c2c1c1cc(Cl)c(Cl)cc1n2C1OC(CO)C(O)C1O` (stereo unspecified), the melting point is reported as 198 to 201 °C. Molecule `CC(=O)NC1CCN(c2c(F)cc([N+](=O)[O-])c(F)c2CO)C1` (stereo unspecified) has a melting point of 142 to 144 °C. With `Cc1ccccc1CC(=NC#N)NC(NC(=O)CF)C(C)(C)C` (stereo unspecified) the melting point was 151 to 152 °C. Molecule `Clc1ccc(C=Cc2nc[nH]n2)cc1` has a melting point of 178 to 182 °C. With `CN1CC(=O)N(SC(Cl)(Cl)Cl)C1=O` the melting point was 110 to 112 °C. `COc1cccc(Nc2ncc3cc4ccccc4n3n2)c1` showed a melting point of 191 to 193 °C. Molecule `CC(=O)c1nc(-c2ccccn2)[nH]c1C` has a melting point of 145 to 147 °C. Work on `CCCCN1C(=O)C(=O)C(C)=C(C#N)C1=O` yielded a melting point of 134 to 135 °C. With `C(=C\c1cc(/C=C/c2c[nH]c3ccccc23)n[nH]1)/c1ccc(OCc2ccccn2)cc1` the melting point was 196 to 199 °C. Work on `CN1CCN(C(=O)[C@H](CC(N)=O)NC(=O)CCc2ccc(OCc3ccccc3)cc2OCc2ccccc2)CC1` yielded a melting point of 121 to 123 °C. Work on `CN1CCC(C2(O)c3sccc3CCn3ncnc32)CC1` (stereo unspecified) yielded a melting point of 158 °C. For `O=C(CCl)Nc1ccc2[nH]c(=O)oc2c1`, the melting point was 228 to 231 °C. Work on `CCc1nnc2c3c(c(Cl)nn12)CCCC3` yielded a melting point of 93 to 94 °C. In the case of `COC(=O)CNC(=O)Nc1cc(F)ccc1[N+](=O)[O-]`, the melting point is reported as 133 to 135 °C. `Nc1nc(N)c2ncn(/C=C3/CC3(CO)CO)c2n1` showed a melting point of 219 to 220 °C. Molecule `CCOC(=O)c1cc2c(cn1)[nH]c1cccc(C=O)c12` has a melting point of 273 to 276 °C. Molecule `COn1cc(-c2ccccc2)c(=O)c(-c2ccccc2)c1` has a melting point of 165 °C. Molecule `CC(=O)NC[C@H]1CN(c2ccc(C(=O)c3ccc[nH]3)cc2)C(=O)O1` has a melting point of 202 to 205 °C. `NC(=O)c1sc2ncnc(-c3cccc(NC(=O)Nc4cccc(C(F)(F)F)c4)c3)c2c1N` gave a melting point of 201 to 203 °C. For `N#Cc1c[nH]cc1C(F)(F)F`, the melting point was 96 to 97 °C. For `NNC(=O)CCc1csc(NC(N)=NCC(F)(F)F)n1`, the melting point was 125 to 126 °C. With `Cc1cc(C)cc(C(=O)N2CCC(=O)CC2Cc2ccccc2)c1` (stereo unspecified) the melting point was 108 °C. With `Cc1ccc(-c2ccc3c(c2)C(=O)CCC3)cc1` the melting point was 86 to 87 °C.
